Patent US4256765A, “Novel hydroxamic acid compounds, method for preparation thereof and medicaments containing such compounds” (priority 1978, dated 1981)

Legend:
[1] = molecular target: T1, Urease extracted and purified from sword bean (Canavalia gladiata, UniProt A0AAN9R4W0); experiment: Urease inhibitory activity (I50), method of Kobashi et al.; type: biochemical; conditions: read-out: Urease-inhibitory activity I50
T1 construct: nickel homohexamer by analogy with jack bean urease
Method: (1) Measurement of urease inhibitory activity of test compounds
Urease was extracted and purified from sword bean and molar concentrations of the test compounds causing 50% inhibition of urease activity (I50) were determined by the method of Kobashi et al. [Refer to Biochim, Biophys. Acta 227, 429-441 (1971).]

[2] = Urinary excretion in rats; type: in vivo, SD strain male rats; conditions: rat, po; 100 mg/Kg orally, SD male rats, urine excreted within 24 hours; read-out: Urinary excretion (%) (mean value ± S. E.)
Method: (2) Measurement of urinary excretion in rats
100 mg/Kg of the test compounds were administered orally to the SD strain male rats weighing about 300 g, and urine specimens excreted within 24 hours were collected by cross-over method. Amounts of the test compounds in urine were determined according to the method of Kobashi et al. [Refer to Yakugaku Zasshi 93 (12), 1564-1572 (1973); J. Biochem. 83, 287-293 (1973).]

Acute toxicity (LD50) = type: in vivo; conditions: for acute toxicity (in words): rats; for LD50: rat, in vivo
Method: The test compounds were administered orally to SD strain male rats weighing about 270 g and SD strain female rats weighing about 170 g.

[3] = system: Salmonela typhimurium TA-98 and TA-100; experiment: Mutagenic activity in microbial tests; type: cell-based, Salmonella typhimurium
Method: The screening of mutagenicity was carried out according to Ames test [Refer to Ames B. N. et al.: Proc: Natl. Acad. Sci. U.S.A., 72, 979-983 (1975)] which is now widely utilized all over the world as an examination for detection of mutagenicity.
Using the strain of Salmonela typhimurium TA-98 and TA-100 as the test bacteria, the mutageic activity was examined for the test compounds untreated with S-9 (9,000×g supernatant fraction of the rat liver homogenate induced with PCB) and the test compounds treated with S-9, respectively. The examined concentration of the test compounds was up to 40,000 μg/ml. Dimethyl sulfoxide (DMSO) was used as solvent.
The result of examination was judged to be positive, when the number of reverse mutation colony was twice comparing with the control group and the positive correlation between dosage and mutagenic activity of the test compound was recognized.

[4] = clinical study of urolithiasis; cited from earlier work
Proteus mirabilis (OM-1) [5] = experiment: Inhibitory effect on alkalization of urine; type: cell-based; conditions: for pH value (mean value ± S. E.) 8 hours after inoculation: normal human urine, Proteus mirabilis 2.75×10^5 cells/ml, 37° C.; for inhibition of the alkalization of urine (in words): Proteus mirabilis (OM-1) inoculated to normal human urine
Method: (§1) To 18 ml of normal human urine was added each test compound to make 10^-3 M and 2×10^-4 M test solution in a final concentration.
(§2) On the other hand, distilled water was added to 18 ml of normal human urine instead of the test compound to make a blank solution.
(§3) To the solution was inoculated intact Proteus mirabilis (OM-1) to make a cell suspension of 2.75×10^5 cells/ml and harvested at 37° C. Before inoculation and at 8 hours after inoculation, the pH values of the solution were measured.

Proteus mirabilis (OM-1) [6] = experiment: Inhibitory effect on calculus formation in urine; type: cell-based; conditions: for inhibition of the calculus formation in urine (in words): Proteus mirabilis (OM-1) inoculated to normal human urine; for inhibition at 200 µM / inhibition at 1000 µM: Proteus mirabilis, 8 h, normal human urine, read-out: Inhibitory rate of calculus formation (%) (mean value ± S. E.) 8 hours after inoculation; for inhibition at 200 µM: 2 × 10^-4 M test compound; for inhibition at 1000 µM: 10^-3 M test compound
Method: as §1, §2, §3
Inhibitory rate of calculi formation was calculated by measuring the weight of formed calculi.

T1 sequence (A0AAN9R4W0 entry or part of it): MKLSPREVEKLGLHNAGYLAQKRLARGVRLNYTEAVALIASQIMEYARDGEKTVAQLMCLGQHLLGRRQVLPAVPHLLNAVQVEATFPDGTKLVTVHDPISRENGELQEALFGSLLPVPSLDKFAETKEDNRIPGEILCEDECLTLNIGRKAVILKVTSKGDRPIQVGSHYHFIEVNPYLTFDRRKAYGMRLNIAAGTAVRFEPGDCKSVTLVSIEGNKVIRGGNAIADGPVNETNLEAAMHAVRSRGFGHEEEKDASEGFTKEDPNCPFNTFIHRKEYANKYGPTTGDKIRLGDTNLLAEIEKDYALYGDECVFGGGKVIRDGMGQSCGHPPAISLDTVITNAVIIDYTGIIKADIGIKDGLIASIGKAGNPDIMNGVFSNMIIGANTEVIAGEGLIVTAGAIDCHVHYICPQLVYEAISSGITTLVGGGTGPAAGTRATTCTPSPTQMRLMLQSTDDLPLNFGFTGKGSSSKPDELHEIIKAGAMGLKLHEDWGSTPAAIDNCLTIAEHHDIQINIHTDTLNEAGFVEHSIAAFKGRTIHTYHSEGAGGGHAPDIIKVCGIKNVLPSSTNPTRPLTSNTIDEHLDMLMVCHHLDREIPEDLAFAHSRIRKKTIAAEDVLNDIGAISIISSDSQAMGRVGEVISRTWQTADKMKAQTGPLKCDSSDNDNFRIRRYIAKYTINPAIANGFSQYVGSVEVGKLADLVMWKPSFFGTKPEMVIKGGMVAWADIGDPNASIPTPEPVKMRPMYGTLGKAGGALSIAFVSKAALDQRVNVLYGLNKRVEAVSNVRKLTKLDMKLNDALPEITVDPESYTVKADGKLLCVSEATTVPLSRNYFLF

SMILES: CCC(C)C(=O)NCC(=O)NO (racemic) [Compound C, N-(DL-2-methyl-n-butyloyl)-glycinohydroxamic acid]
- IC50 [1]: 1290 nM
- dose excreted at 24 h [2]: 9.25 ± 2.16%
- acute toxicity (in words) (Acute toxicity (LD50); oral): low
- LD50 (Acute toxicity (LD50); oral, SD male and female rats): > 9000 mg/kg

SMILES: O=C(CNC(=O)c1ccco1)NO [2-(2-furoylamino)-acetohydroxamic acid]
- mutagenic activity (in words) [3]: show mutagenecity

SMILES: CC(=O)Nc1cccc(C(=O)NCC(=O)NO)c1 [2-(meta-acetylaminobenzamide)-acetohydroxamic acid]
- mutagenic activity (in words) [3]: show mutagenecity

SMILES: COc1cccc(C(=O)NCC(=O)NO)c1 [2-(meta-methoxybenzamide)-acetohydroxamic acid]
- mutagenic activity (in words) [3]: show mutagenecity

SMILES: COc1ccc(C(=O)NCC(=O)NO)cc1 [2-(para-methoxybenzamide)-acetohydroxamic acid]
- mutagenic activity (in words) [3]: show mutagenecity

SMILES: O=C(CNC(=O)c1ccc(Cl)cc1)NO [Benurestat, 2-(para-chlorobenzamide)-acetohydroxamic acid]
- mutagenic activity (in words) [3]: have the mutagenic activity

SMILES: CC(=O)NO [CH3 CONHOH, Acetohydroxamic acid]
- mutagenic activity (in words) [3]: have the mutagenic activity
- decreasing the amount of ammonia in urine and preventing the alkalization of urine (in words) [4]: effective

SMILES: CC(C)(C)C(=O)NCC(=O)NO [Compound A, N-(pivaloyl)-glycinohydroxamic acid]
- IC50 [1]: 4380 nM
- dose excreted at 24 h [2]: 14.6 ± 1.82%
- pH value (mean value ± S. E.) 8 hours after inoculation (Proteus mirabilis (OM-1) [5]; 2 × 10^-4 M test compound): 8.41 ± 0.007
- pH value (mean value ± S. E.) 8 hours after inoculation (Proteus mirabilis (OM-1) [5]; 10^-3 M test compound): 7.33 ± 0.09
- inhibition of the alkalization of urine (in words) (Proteus mirabilis (OM-1) [5]): inhibited the alkalization of urine
- inhibition of the calculus formation in urine (in words) (Proteus mirabilis (OM-1) [6]): inhibited
- inhibition at 200 µM (Proteus mirabilis (OM-1) [6]): 50 ± 5.2%
- inhibition at 1000 µM (Proteus mirabilis (OM-1) [6]): 82 ± 8.2%
- acute toxicity (in words) (Acute toxicity (LD50); oral): low
- LD50 (Acute toxicity (LD50); oral, SD male and female rats): > 9000 mg/kg

SMILES: CCC(CC)C(=O)NCC(=O)NO [Compound B, N-(2-ethyl-n-butyloyl)-glycinohydroxamic acid]
- IC50 [1]: 790 nM
- dose excreted at 24 h [2]: 5.37 ± 0.852%
- pH value (mean value ± S. E.) 8 hours after inoculation (Proteus mirabilis (OM-1) [5]; 2 × 10^-4 M test compound): 7.24 ± 0.04
- pH value (mean value ± S. E.) 8 hours after inoculation (Proteus mirabilis (OM-1) [5]; 10^-3 M test compound): 6.14 ± 0.01
- inhibition of the alkalization of urine (in words) (Proteus mirabilis (OM-1) [5]): inhibited the alkalization of urine
- inhibition of the calculus formation in urine (in words) (Proteus mirabilis (OM-1) [6]): inhibited
- inhibition at 200 µM (Proteus mirabilis (OM-1) [6]): 93.7 ± 1.6%
- inhibition at 1000 µM (Proteus mirabilis (OM-1) [6]): 95.7%
- acute toxicity (in words) (Acute toxicity (LD50); oral): low
- LD50 (Acute toxicity (LD50); po): > 9000 mg/kg
